{
  "source": "patent US10259807B2",
  "about": "“1-(piperazin-1-yl)-2-([1,2,4]triazol-1-yl)-ethanone derivatives” (Idorsia Pharmaceuticals Ltd., priority 2013, dated 2019)",
  "experiment": "Determination of pharmacokinetic parameters in rats",
  "conditions": "for AUC: male, Wistar (RccHan:WIST), rat, po, 2 mg/kg",
  "protocol": "Male Wistar rats (RccHan:WIST) were obtained from Harlan (Venray, The Netherlands) and used for pharmacokinetic experiments after an acclimatization period of at least 7 days. The body weight of the rats was about 250 g at the day of the experiment. Two days prior to dosing, rats were anesthetized for surgery via inhalation of isoflurane (4-5% for induction and 1.5-3% for maintenance) in oxygen. Buprenorphine was dosed as analgesic at 0.03 mg/kg sc half an hour before surgery. Under aseptic conditions, catheters were implanted into jugular vein for dosing and carotid artery to allow for multiple serial blood sampling. […] Compounds were administered intravenously via a 5-minute infusion at doses of 0.5 or 1 mg/kg body weight formulated as solutions in water prepared by pH adjustment or as an aqueous mixed micellar vehicle based on phospholipids and bile acids (mixed micelles). […] Oral formulations were solutions in water prepared by pH adjustment or dispersions prepared by addition of a DMSO stock solution of the compounds to methylcellulose (0.5% w/v) in water. […] Blood samples were centrifuged at 3000 g (10 minutes, 4° C.) and plasma was submitted to LC-MS/MS analysis.",
  "data": [
    {"smiles": "Cc1nc(C)n(CC(=O)N2CCN(c3sc(C(F)(F)F)nc3-c3cnc(C(F)(F)F)nc3)C[C@H]2C)n1", "note": "[Example 24, 2-(3,5-Dimethyl-[1,2,4]triazol-1-yl)-1-{(R)-2-methyl-4-[2-trifluoromethyl-4-(2-trifluoromethyl-pyrimidin-5-yl)-thiazol-5-yl]-piperazin-1-yl}-ethanone]", "values": [
      {"measurement": "plasma concentration after oral administration", "setting": "compared to reference compounds disclosed in WO 2010/126811", "result": "surprisingly high plasma concentration"},
      {"measurement": "AUC", "setting": "in vivo, pH 2.1", "result": 14000, "unit": "ng·h/mL"}
    ]},
    {"smiles": "COc1ncc(-c2cc(C(F)(F)F)ccc2N2CCN(C(=O)Cn3nc(C)cc3C)CC2)cn1", "note": "[reference compound 1, 2-(3,5-Dimethyl-pyrazol-1-yl)-1-{4-[2-(2-methoxy-pyrimidin-5-yl)-4-trifluoromethyl-phenyl]piperazin-1-yl}-ethanone]", "values": [
      {"measurement": "AUC", "setting": "plasma", "result": 273, "unit": "ng·h/mL"}
    ]},
    {"smiles": "CSc1ncc(-c2cc(C(F)(F)F)ccc2N2CCN(C(=O)Cn3nc(C)cc3C)CC2)cn1", "note": "[reference compound 2, 2-(3,5-Dimethyl-pyrazol-1-yl)-1-{4-[2-(2-methylsulfanyl-pyrimidin-5-yl)-4-trifluoromethyl-phenyl]-piperazin-1-yl}-ethanone]", "values": [
      {"measurement": "AUC", "setting": "plasma", "result": 202, "unit": "ng·h/mL"}
    ]},
    {"smiles": "CNc1ncc(-c2cc(C(F)(F)F)ccc2N2CCN(C(=O)Cn3nc(C)cc3C)CC2)cn1", "note": "[reference compound 3, 2-(3,5-Dimethyl-pyrazol-1-yl)-1-{4-[2-(2-methylamino-pyrimidin-5-yl)-4-trifluoromethyl-phenyl]-piperazin-1-yl}-ethanone]", "values": [
      {"measurement": "AUC", "setting": "plasma, pH 3.03", "result": 271, "unit": "ng·h/mL"}
    ]}
  ]
}
